For assay [1], the system named is Mouse bone marrow-derived dendritic cells (mBMDCs). As to the kind of experiment: Antigen (OVA-Alexa Fluor 488) uptake in mouse BMDCs, flow cytometry. The format is cell-based, C57BL/6 mice. The conditions noted are these: 10 μM 1Z105 or MPLA overnight, 37° C., OVA-488 last 30 min. As to the method: (§1) (A) Upregulation of antigen uptake by 1Z105. BMDCs prepared from C57BL/6 mice were incubated with 10 μM 1Z105 or MPLA overnight. Antigen, Alexa Fluor 488-conjugated ovalbumin (OVA-488), was added to the culture for the last 30 min of incubation. The cells were washed and stained for CD11c. OVA-associated dendritic cells in the CD11c^hi population were evaluated by flow cytometry. Cells incubated at 4° C. served as a negative control. (B and C) Enhancement of expression of costimulatory molecules by 1Z105.WT (B) or Tlr4^−/− (C) BMDCs were incubated with 1Z105 (10 or 2 μM) or MPLA (0.04 μg/ml) overnight, and expression of CD40 and CD86 was assessed by flow cytometric assay. (D) 1Z105 promotes antigen cross-presentation. Wild-type BMDCs were incubated with 1Z105 (2 μM) overnight, and OVA (10 μg/ml) was added to the culture for the last 4 h of incubation. […] OT-1 T-cell proliferation was monitored by flow-cytometric assay. […] Cytokine release of IL-1β, IL-6, IL-8, IL-12p70, and TNF-α was determined by Luminex bead assay. […]
Mouse bone marrow-derived dendritic cells (mBMDCs) were prepared from wild type or Tlr4^−/− C57BL/6 mice. mBMDCs (10^5 cells per well) were plated in 96-well plates in 200 μl of complete RPMI 1640. […] The cells were stained for CD11c, and OVA uptake and expression of CD40 and CD86 in the CD11chi-gated population was determined by flow cytometry.

Assay [2] has as its system human monocyte-derived DCs. The assay is described as follows: Cytokine induction of human monocyte-derived dendritic cells (Luminex). The format is cell-based. The conditions noted are these: 10 μM, 18 h. The protocol:
as §1, with “cross-presentation.” for “cross-presentation. Wild-type BMDCs were incubated with 1Z105 (2 μM) overnight, and OVA (10 μg/ml) was added to the culture for the last 4 h of incubation.”
Human primary dendritic cells (DCs) were generated. […] The supernatants were stored at −20° C. for later quantification of released cytokines. Quantification of IL-1β, IL-6, IL-8, IL-12p70, and tumor necrosis factor alpha (TNF-α) released in supernatants was performed using the Milliplex Multiplex Assays (Luminex; Millipore, Billerica, Mass.) according to the manufacturer's instructions. Data were analyzed using the Milliplex Analyst software (Millipore).

Assay [3] has as its system CD8+ OT-1 T cells cultured with BMDCs. As to the kind of experiment: OT-1 CD8 T cell proliferation assay (antigen cross-presentation). To be noted: BMDCs with 1Z105 2 μM or MPLA 1 μg/ml overnight, OVA 10 μg/ml, 3 days. The format is cell-based, C57BL/6 mice. The protocol: (A) Upregulation of antigen uptake by 1Z105. BMDCs prepared from C57BL/6 mice were incubated with 10 μM 1Z105 or MPLA overnight. Antigen, Alexa Fluor 488-conjugated ovalbumin (OVA-488), was added to the culture for the last 30 min of incubation. The cells were washed and stained for CD11c. OVA-associated dendritic cells in the CD11c^hi population were evaluated by flow cytometry. Cells incubated at 4° C. served as a negative control. (B and C) Enhancement of expression of costimulatory molecules by 1Z105.WT (B) or Tlr4^−/− (C) BMDCs were incubated with 1Z105 (10 or 2 μM) or MPLA (0.04 μg/ml) overnight, and expression of CD40 and CD86 was assessed by flow cytometric assay. (D) 1Z105 promotes antigen cross-presentation. Wild-type BMDCs were incubated with 1Z105 (2 μM) overnight, and OVA (10 μg/ml) was added to the culture for the last 4 h of incubation. The cells were washed and cultured with CFSE-labeled CD8^+ OT1Tcells for 3 days. OT-1 T-cell proliferation was monitored by flow-cytometric assay. […] Cytokine release of IL-1β, IL-6, IL-8, IL-12p70, and TNF-α was determined by Luminex bead assay. […]
Naive CD8^+ T cells from OT-1 C57BL/6 mice were isolated using an EasySep Mouse CD8^+ T Cell Isolation Kit and stained with carboxyfluorescein succinimidyl ester (CFSE) (10 μM). […] OT-1 T cell proliferation was monitored by CFSE dilution using a flow cytometer.

As for `Cn1c2ccccc2c2nc(SCC(=O)NC3CCCCC3)n(-c3ccccc3)c(=O)c21` [Compound 1Z105], in assay [1], the “OVA-associated CD11chi BMDCs (antigen uptake)” value is reported as “increased number”. Also, in assay [2], the “proinflammatory cytokine release (IL-1β, IL-6, IL-8, IL-12p70, TNF-α)” value is reported as “activated human monocyte-derived DCs, resulting in proinflammatory cytokine release”. For the same molecule, the “proliferation of OT-1 cells (antigen cross-presentation)” value in assay [3] is reported as “induced proliferation of OT-1 cells”.

For the origin of these results see US20150366962A1 (priority 2014, published 2015).
